Data: patent US8129371B2, “Thienopyrimidine and pyrazolopyrimidine compounds and their use as mTOR kinase and PI3 kinase inhibitors” (Wyeth LLC, priority 2007, dated 2012)

Assays:
[1] = biological target: T1, Human mTOR (FLAG-TOR) (Homo sapiens, UniProt P42345); assay: Human mTOR kinase assay with purified enzyme, DELFIA format; format: biochemical
T1 construct: FLAG
Method in brief: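 DELFIA readout: Eu-anti-P(T389)-S6K antibody (40 ng/mL, 1 h) on captured His6-S6K from the stopped reaction. Kinase step used purified FLAG-tagged human mTOR with test compound in HEPES (pH 7.4)/MnCl2/DTT buffer, 2 h at room temperature (linear 1–6 h), terminated by EDTA/EGTA.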

[2] = biological target: T2, PI3K (Homo sapiens, UniProt P42336); assay: Fluorescence polarization assay for PI3K; format: biochemical; details: PI3 Kinase α; read-out: PI3 Kinase α IC50
T2 construct: PI3 Kinase α IC50; other: PI3 Kinase α; other: PI3 Kinase α isoform, fluorescence polarization
T2 sequence (P42336 whole entry, canonical isoform): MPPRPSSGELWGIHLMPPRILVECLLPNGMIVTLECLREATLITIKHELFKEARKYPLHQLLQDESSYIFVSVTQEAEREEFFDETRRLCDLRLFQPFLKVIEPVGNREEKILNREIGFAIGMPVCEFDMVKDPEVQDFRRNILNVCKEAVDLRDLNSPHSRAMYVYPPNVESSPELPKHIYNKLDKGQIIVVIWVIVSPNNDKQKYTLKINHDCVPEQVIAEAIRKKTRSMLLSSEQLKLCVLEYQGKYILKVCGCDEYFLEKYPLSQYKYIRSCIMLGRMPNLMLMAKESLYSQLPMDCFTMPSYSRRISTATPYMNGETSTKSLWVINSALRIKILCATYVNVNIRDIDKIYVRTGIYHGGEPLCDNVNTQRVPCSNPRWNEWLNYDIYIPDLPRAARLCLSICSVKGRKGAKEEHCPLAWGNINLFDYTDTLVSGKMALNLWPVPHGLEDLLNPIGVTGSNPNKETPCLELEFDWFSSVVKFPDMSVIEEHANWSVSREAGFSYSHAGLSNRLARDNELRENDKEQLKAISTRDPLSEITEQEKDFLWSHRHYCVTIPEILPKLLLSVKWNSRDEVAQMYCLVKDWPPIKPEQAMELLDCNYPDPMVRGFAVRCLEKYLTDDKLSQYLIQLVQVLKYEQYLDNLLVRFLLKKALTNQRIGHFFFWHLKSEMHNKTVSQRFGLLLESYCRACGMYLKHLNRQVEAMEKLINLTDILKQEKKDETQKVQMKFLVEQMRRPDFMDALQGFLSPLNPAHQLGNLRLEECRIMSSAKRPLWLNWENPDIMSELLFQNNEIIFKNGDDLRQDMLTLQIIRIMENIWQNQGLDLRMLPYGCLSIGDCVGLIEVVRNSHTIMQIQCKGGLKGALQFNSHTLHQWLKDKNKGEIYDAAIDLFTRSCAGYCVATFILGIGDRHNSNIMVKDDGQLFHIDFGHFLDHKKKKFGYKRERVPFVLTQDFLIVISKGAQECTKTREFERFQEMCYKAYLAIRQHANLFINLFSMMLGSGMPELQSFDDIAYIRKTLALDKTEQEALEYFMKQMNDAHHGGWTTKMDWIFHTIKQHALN
Method in brief: (§1)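 Fluorescence-polarization competition readout: after 30–60 min of PIP2/ATP turnover in 1% DMSO, a stop mix with GST-GRP (70 nM) and red probe (10 nM) was added.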

[3] = biological target: T3, PI3K (Homo sapiens, UniProt P48736); assay: Fluorescence polarization assay for PI3K; format: biochemical; details: PI3 Kinase γ; read-out: PI3 Kinase γ IC50
T3 construct: PI3 Kinase γ IC50; other: PI3 Kinase γ; other: PI3 Kinase γ isoform, fluorescence polarization
T3 sequence (P48736 whole entry, canonical isoform): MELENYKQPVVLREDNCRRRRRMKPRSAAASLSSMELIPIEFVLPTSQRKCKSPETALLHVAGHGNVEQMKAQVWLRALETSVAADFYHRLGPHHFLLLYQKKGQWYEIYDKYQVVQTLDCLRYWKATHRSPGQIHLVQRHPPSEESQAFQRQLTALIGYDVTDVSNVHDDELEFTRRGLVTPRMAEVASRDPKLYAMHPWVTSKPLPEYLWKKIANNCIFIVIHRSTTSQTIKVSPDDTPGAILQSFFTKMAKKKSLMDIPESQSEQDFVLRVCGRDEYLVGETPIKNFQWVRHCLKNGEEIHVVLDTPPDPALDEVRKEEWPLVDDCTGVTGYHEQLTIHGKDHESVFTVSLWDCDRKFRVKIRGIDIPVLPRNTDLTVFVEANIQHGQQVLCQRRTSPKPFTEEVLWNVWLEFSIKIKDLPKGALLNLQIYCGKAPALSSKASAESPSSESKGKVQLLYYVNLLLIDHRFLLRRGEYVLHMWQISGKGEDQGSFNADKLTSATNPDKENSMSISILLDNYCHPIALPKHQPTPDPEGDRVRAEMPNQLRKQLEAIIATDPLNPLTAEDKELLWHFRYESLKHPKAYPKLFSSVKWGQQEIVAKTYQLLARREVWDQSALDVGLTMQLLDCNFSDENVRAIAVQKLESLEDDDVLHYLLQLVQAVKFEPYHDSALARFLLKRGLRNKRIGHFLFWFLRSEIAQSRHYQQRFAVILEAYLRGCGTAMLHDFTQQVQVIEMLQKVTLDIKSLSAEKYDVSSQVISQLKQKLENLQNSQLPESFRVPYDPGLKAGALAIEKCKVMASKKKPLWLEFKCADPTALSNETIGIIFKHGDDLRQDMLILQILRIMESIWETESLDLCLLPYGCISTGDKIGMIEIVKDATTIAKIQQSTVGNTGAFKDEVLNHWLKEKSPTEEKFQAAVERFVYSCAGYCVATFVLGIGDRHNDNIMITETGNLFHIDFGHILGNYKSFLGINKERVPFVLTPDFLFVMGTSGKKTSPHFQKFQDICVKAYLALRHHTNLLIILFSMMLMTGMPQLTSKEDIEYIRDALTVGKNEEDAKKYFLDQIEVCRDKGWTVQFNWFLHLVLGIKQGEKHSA
Method in brief: as §1

[4] = tested on: prostate line LNCap; assay: In vitro cell culture growth assay (MTS), LNCap; format: cell-based; details: Homo sapiens, LNCaP, 72 h, LNCap cells, three days after drug treatment
Method in brief: (§2)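 Inhibitors were added one day after plating, and viable cells were measured 3 days later by MTS conversion (absorbance 490 nm).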

[5] = tested on: breast line MDA468; assay: In vitro cell culture growth assay (MTS), MDA468; format: cell-based; details: Homo sapiens, 72 h, MDA468 cells, three days after drug treatment
Method in brief: as §2

Row | SMILES | IC50 [1] [nM] | IC50 [2] [nM] | IC50 [3] [nM] | IC50 [4] [nM] | IC50 [5] [nM]
1 | O=C(Nc1ccc(-c2nc(N3C4CCC3COC4)c3cnn(CC(F)(F)F)c3n2)cc1)OCCO [Example 266, 2-hydroxyethyl {4-[4-(3-oxa-8-azabicyclo[3.2.1]oct-8-yl)-1-(2,2,2-trifluoroethyl)-1H-pyrazolo[3,4-d]pyrimidin-6-yl]phenyl}carbamate] | 0.615 | 2720 | > 10000 | 27 | 180
2 | CNC(=O)Nc1ccc(-c2nc(N3C4CCC3COC4)c3cnn(CC(F)(F)F)c3n2)cc1 [Example 267, 1-methyl-3-{4-[4-(3-oxa-8-azabicyclo[3.2.1]oct-8-yl)-1-(2,2,2-trifluoroethyl)-1H-pyrazolo[3,4-d]pyrimidin-6-yl]phenyl}urea] | 0.565 | 1370 | 9000 | 9 | 40
3 | O=C(Nc1ccc(-c2nc(N3C4CCC3COC4)c3cnn(CC(F)(F)F)c3n2)cc1)Nc1cccnc1 [Example 268, 1-{4-[4-(3-oxa-8-azabicyclo[3.2.1]oct-8-yl)-1-(2,2,2-trifluoroethyl)-1H-pyrazolo[3,4-d]pyrimidin-6-yl]phenyl}-3-pyridin-3-ylurea] | 0.2 | 227 | 3010 | < 1 | 3
4 | O=C(Nc1ccc(CO)cc1)Nc1ccc(-c2nc(N3C4CCC3COC4)c3cnn(CC(F)(F)F)c3n2)cc1 [Example 269, 1-[4-(hydroxymethyl)phenyl]-3-{4-[4-(3-oxa-8-azabicyclo[3.2.1]oct-8-yl)-1-(2,2,2-trifluoroethyl)-1H-pyrazolo[3,4-d]pyrimidin-6-yl]phenyl}urea] | 0.079 | 117 | 2130 | < 1 | < 1
5 | CN1CCN(c2ccc(NC(=O)Nc3ccc(-c4nc(N5C6CCC5COC6)c5cnn(CC(F)(F)F)c5n4)cc3)cc2)CC1 [Example 270, 1-[4-(4-methylpiperazin-1-yl)phenyl]-3-{4-[4-(3-oxa-8-azabicyclo[3.2.1]oct-8-yl)-1-(2,2,2-trifluoroethyl)-1H-pyrazolo[3,4-d]pyrimidin-6-yl]phenyl}urea] | 0.52 | 371 | 9500 | < 1 | 1
6 | O=C(Nc1ccc(-c2nc(N3C4CCC3COC4)c3cnn(CC(F)(F)F)c3n2)cc1)NC1CC1 [Example 271, 1-cyclopropyl-3-{4-[4-(3-oxa-8-azabicyclo[3.2.1]oct-8-yl)-1-(2,2,2-trifluoroethyl)-1H-pyrazolo[3,4-d]pyrimidin-6-yl]phenyl}urea] | 0.355 | 3680 | 9000 | 7 | 80
7 | O=C(Nc1ccc(CCO)cc1)Nc1ccc(-c2nc(N3C4CCC3COC4)c3cnn(CC(F)(F)F)c3n2)cc1 [Example 272, 1-[4-(2-hydroxyethyl)phenyl]-3-{4-[4-(3-oxa-8-azabicyclo[3.2.1]oct-8-yl)-1-(2,2,2-trifluoroethyl)-1H-pyrazolo[3,4-d]pyrimidin-6-yl]phenyl}urea] | 0.106 | 132 | 1150 | < 1 | 1
8 | O=C(Nc1ccc(-c2nc(N3C4CCC3COC4)c3cnn(CC(F)(F)F)c3n2)cc1)Nc1ccc(N2CCOCC2)cc1 [Example 273, 1-(4-morpholin-4-ylphenyl)-3-{4-[4-(3-oxa-8-azabicyclo[3.2.1]oct-8-yl)-1-(2,2,2-trifluoroethyl)-1H-pyrazolo[3,4-d]pyrimidin-6-yl]phenyl}urea] | 0.24 | 618 | > 10000 | 1 | 10
9 | O=C(Nc1ccc(-c2nc(N3C4CCC3COC4)c3cnn(CC(F)(F)F)c3n2)cc1)Nc1ccc(N2CCOCC2)nc1 [Example 274, 1-(6-morpholin-4-ylpyridin-3-yl)-3-{4-[4-(3-oxa-8-azabicyclo[3.2.1]oct-8-yl)-1-(2,2,2-trifluoroethyl)-1H-pyrazolo[3,4-d]pyrimidin-6-yl]phenyl}urea] | 0.245 | 1210 | 7310 | < 1 | 20
10 | CN(C)CCOc1ccc(NC(=O)Nc2ccc(-c3nc(N4C5CCC4COC5)c4cnn(CC(F)(F)F)c4n3)cc2)cc1 [Example 275, 1-{4-[2-(dimethylamino)ethoxy]phenyl}-3-{4-[4-(3-oxa-8-azabicyclo[3.2.1]oct-8-yl)-1-(2,2,2-trifluoroethyl)-1H-pyrazolo[3,4-d]pyrimidin-6-yl]phenyl}urea] | 0.575 | 275 | 3110 | < 1 | < 1

Continued, in another order:

Row | IC50 [1] [nM] | IC50 [2] [nM] | IC50 [3] [nM] | IC50 [4] [nM] | SMILES | IC50 [5] [nM]
11 | 2.9 | 1690 | 8840 | 38 | O=C(Nc1ccc(-c2nc(N3CC4CCC(C3)O4)c3cnn(C4CCN(Cc5ccccc5)CC4)c3n2)cc1)OCCO [Example 264, 2-hydroxyethyl {4-[1-(1-benzylpiperidin-4-yl)-4-(8-oxa-3-azabicyclo[3.2.1]oct-3-yl)-1H-pyrazolo[3,4-d]pyrimidin-6-yl]phenyl}carbamate] | 700
12 | 1.2 | 3470 | > 10000 | 18 | O=C(Nc1ccc(-c2nc(N3CC4CCC(C3)O4)c3cnn(C4CCN(CC(F)(F)F)CC4)c3n2)cc1)NC1CC1 [Example 265, 1-cyclopropyl-3-(4-{4-(8-oxa-3-azabicyclo[3.2.1]oct-3-yl)-1-[1-(2,2,2-trifluoroethyl)piperidin-4-yl]-1H-pyrazolo[3,4-d]pyrimidin-6-yl}phenyl)urea] | 700
13 | 93 | 3980 | 9000 | 7500 | CCn1ncc2c(N3CC4CCC(C3)O4)nc(-c3ccc(NC(=O)NCC(=O)N4CCN(C)CC4)cc3)nc21 [Example 276, 1-{4-[1-ethyl-4-(8-oxa-3-azabicyclo[3.2.1]oct-3-yl)-1H-pyrazolo[3,4-d]pyrimidin-6-yl]phenyl}-3-[2-(4-methylpiperazin-1-yl)-2-oxoethyl]urea] | 30000
14 | 110 | 2950 | > 10000 | 3500 | CCn1ncc2c(N3CC4CCC(C3)O4)nc(-c3ccc(NC(=O)NCCC(=O)N4CCN(C)CC4)cc3)nc21 [Example 277, 1-{4-[1-ethyl-4-(8-oxa-3-azabicyclo[3.2.1]oct-3-yl)-1H-pyrazolo[3,4-d]pyrimidin-6-yl]phenyl}-3-[3-(4-methylpiperazin-1-yl)-3-oxopropyl]urea] | 8000
15 | 42 | 311 | 494 | 2200 | CCn1ncc2c(N3CC4CCC(C3)O4)nc(-c3ccc(NC(=O)NCC(=O)NCCN(C)C)cc3)nc21 [Example 278] | 5200
16 | 23.5 | 1830 | 8110 | 3200 | CCn1ncc2c(N3CC4CCC(C3)O4)nc(-c3ccc(NC(=O)NCCC(=O)NCCN(C)C)cc3)nc21 [Example 279] | 6000
17 | 6 | 1440 | 8210 | 55 | CCn1ncc2c(N3CC4CCC(C3)O4)nc(-c3ccc(NC(=O)Nc4ccc(N5CCCC5)cc4)cc3)nc21 [Example 280, 1-{4-[1-ethyl-4-(8-oxa-3-azabicyclo[3.2.1]oct-3-yl)-1H-pyrazolo[3,4-d]pyrimidin-6-yl]phenyl}-3-(4-pyrrolidin-1-ylphenyl)urea] | 120
18 | 1.07 | 173 | 1100 | 4 | CCn1ncc2c(N3CC4CCC(C3)O4)nc(-c3ccc(NC(=O)Nc4ccc(OCCO)cc4)cc3)nc21 [Example 281, 1-{4-[1-ethyl-4-(8-oxa-3-azabicyclo[3.2.1]oct-3-yl)-1H-pyrazolo[3,4-d]pyrimidin-6-yl]phenyl}-3-[4-(2-hydroxyethoxy)phenyl]urea] | 19
19 | 0.3 | 166 | 1160 | 5 | CCn1ncc2c(N3CC4CCC(C3)O4)nc(-c3ccc(NC(=O)Nc4ccc(OCCO)nc4)cc3)nc21 [Example 282, 1-{4-[1-ethyl-4-(8-oxa-3-azabicyclo[3.2.1]oct-3-yl)-1H-pyrazolo[3,4-d]pyrimidin-6-yl]phenyl}-3-[6-(2-hydroxyethoxy)pyridin-3-yl]urea] | 21
20 | 0.975 | 373 | 4750 | < 1 | CCn1ncc2c(N3CC4CCC(C3)O4)nc(-c3ccc(NC(=O)Nc4ccc(OCCN5CCOCC5)nc4)cc3)nc21 [Example 283, 1-{4-[1-ethyl-4-(8-oxa-3-azabicyclo[3.2.1]oct-3-yl)-1H-pyrazolo[3,4-d]pyrimidin-6-yl]phenyl}-3-[6-(2-morpholin-4-ylethoxy)pyridin-3-yl]urea] | 8
21 | 1.5 | 419 | > 10000 | 6 | CCn1ncc2c(N3CC4CCC(C3)O4)nc(-c3ccc(NC(=O)Nc4ccc(N(C)C)nc4)cc3)nc21 [Example 284, 1-[6-(dimethylamino)pyridin-3-yl]-3-{4-[1-ethyl-4-(8-oxa-3-azabicyclo[3.2.1]oct-3-yl)-1H-pyrazolo[3,4-d]pyrimidin-6-yl]phenyl}urea] | 80
